Assay results as given in US12668599B2, “Heterobifunctional compounds and methods of treating disease” (Halda Therapeutics OpCo, Inc., priority 2023, dated 2026).

Tested on: androgen receptor WT, T878A, L702H and H875Y and BRD4 protein
Assay: Ternary complex formation in TRex293 cells with doxycycline inducible androgen receptor (AR capture / HRP-BRD4 antibody ELISA)
Format: cell-based
Details: Trex293 cells engineered to express wtAR and the T878A, L702H and H875Y AR mutants, 1 hour treatment, FIG. 2
Experimental: Compound II-5 was tested for ability to form a ternary complex containing Compound II-5, androgen receptor, and bromodomain-containing protein 4 (BRD4) protein using TRex293 cells induced to express elevated levels of androgen receptor.
TRex293 cells expressing doxycycline inducible androgen receptor WT, T878A, L702H and H875Y were generated and cultured in DMEM medium supplemented with 10% heat inactivated fetal bovine serum, and 1% pen-strep (culture medium). 25,000 cells were seeded per well in 100 μL of phenol red free DMEM containing 10% CSS, 1% pen strep, and 10 ng/mL doxycycline in a clear 96-well poly-D-lysine coated plate. Plates were incubated at 37° C. Black, opaque 96-well MaxiSorp plates were coated with 50 μL of androgen receptor antibody diluted in phosphate buffered saline (PBS). The coated plates were sealed and placed at 4° C. overnight. Plates coated with androgen receptor antibody were washed three times with 200 μL 1× tris -buffered saline plus 0.1% Tween20 (TBST), then blocked with 200 μL of 3% bovine serum albumin in TBST for 1 hour at room temperature. Test compound titrations were diluted in culture medium. 100 μL of the test compound/media mixture was added to the cell plate. After treatment, plates were incubated for 1 hour. Then, cells were washed once with 250 μL 1× PBS. […] Fluorescent endpoint read was conducted on a SpectraMax plate reader.

SMILES: COc1cc(O[C@H]2C(C)(C)[C@H](NC(=O)c3cnc(N4CCC5(CC4)CC(Oc4ccc(C6=N[C@@H](Cc7ncco7)c7nnc(C)n7-c7sc(C)c(C)c76)cc4)C5)nc3)C2(C)C)ccc1C#N [II-5, N-[(1r,3r)-3-(4-cyano-3-methoxy-phenoxy)-2,2,4,4-tetramethyl-cyclobutyl]-2-[2-[4-[(9S)-4,5,13-trimethyl-9-(oxazol-2-ylmethyl)-3-thia-1,8,11,12-tetrazatricyclo[8.3.0.0^2,6]trideca-2 (6),4,7,10,12-pentaen-7-yl]phenoxy]-7-azaspiro[3.5]nonan-7-yl]pyrimidine-5-carboxamide]
- ternary complex formation between Compound II-5, androgen receptor, and BRD4: detected
